The results in this text go back to PubChem BioAssay AID1322 (NMMLSC, 2008).

SMILES strings stand for the structures. Calls of active or inactive are those of the source. The rule behind the calls is not given here.

The target in one test is Bcl-2-like protein 1 (Homo sapiens) (UniProt Q07817). Nature of the test: Bim-Bcl-XL interaction inhibitors, potency, dose response, biochemical, multiplexed, bead flow cytometry, human Bcl-XL (AID 1322). For inhibition: test concentration not given here. To be noted: Bead-based flow cytometry, Bim peptide-Bcl-XL binding, MCF.
Bcl-2-like protein 1 (Homo sapiens), sequence (Q07817 whole entry, looked up): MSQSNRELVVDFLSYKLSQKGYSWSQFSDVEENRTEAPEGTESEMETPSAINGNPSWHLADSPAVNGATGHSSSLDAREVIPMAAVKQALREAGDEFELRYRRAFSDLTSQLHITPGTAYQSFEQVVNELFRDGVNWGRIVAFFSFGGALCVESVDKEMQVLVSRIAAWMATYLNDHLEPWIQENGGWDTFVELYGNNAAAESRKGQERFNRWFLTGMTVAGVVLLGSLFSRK
Regarding `CN(CCc1ccccn1)C(=O)CCC1CCCN(C(=O)NC2CCCCC2)C1` (centres undefined), the result was inactive. Same read-out and setting: the result for `CC(NCc1ccc(-c2ccccc2)cc1)C(O)c1ccccc1` (centres undefined) reads “inactive”; that for `COc1ccc(C(=O)NC(=S)N2CCNC(=O)C2)cc1Br`, “inactive”. Same read-out and setting: the result for `CCOc1cc(CNc2ccc(N3CCCCC3)cc2)cc(Br)c1OCC(=O)NC(C)(C)C` reads “inactive”. In the case of `O=C1CCc2cc(S(=O)(=O)NCCCC(=O)N3CCN(Cc4ccc5c(c4)OCO5)CC3)ccc2N1`, the result was inactive. Same read-out and setting: the same measure for `Cc1cc(-c2nnc(CCC(=O)NC(C)c3cccc4ccccc34)o2)no1` (centres undefined): “inactive”; for `CCOC(=O)N1CCC(c2cc(=O)n(-c3ccccc3)[nH]2)CC1`: “inactive”. With `CC(C)CCN1CCN(Cc2cccc3cccnc23)CC1CCO` (centres undefined), the result was inactive. On the same count and under the same terms, the result for `CC1CC2=C(NC(=S)NC2c2ccccc2F)/C(=C/c2ccccc2F)C1` (centres undefined) reads “inactive”; that for `Cc1cc[n+]2cc(-c3cccc([N+](=O)[O-])c3)c(-c3cccc([N+](=O)[O-])c3)cc2c1`, “inactive”. Turning to `Cc1ccc(NC(=O)c2cc(S(=O)(=O)NCCC3=CCCCC3)ccc2F)cc1F`, the result was inactive. Still for that read-out and setting: the result for `Cn1c(=O)c2cc(S(=O)(=O)Nc3cc(C(=O)O)cc(C(=O)O)c3)ccc2n(C)c1=O` reads “inactive”. Same read-out and setting: the same measure for `COc1ccc(OC)c(Nc2ccc(C(=O)O)cc2[N+](=O)[O-])c1`: “inactive”; for `CCOC(=O)CSC1=NC(=O)/C(=C/c2ccc(Br)cc2)S1`: “inactive”. The same measure, in the same setting: the result for `O=C(c1ccccc1)c1ccc2nc(-c3ccco3)c(-c3ccco3)nc2c1` reads “inactive”; that for `Cc1ccc(C(=O)NNC(=O)c2ccc3ncccc3c2)cc1`, “inactive”; that for `Cn1c(N)c(C(=O)COC(=O)c2cncc(Br)c2)c(=O)n(C)c1=O`, “inactive”. For the compound `O=C(N/N=C/c1cccc([N+](=O)[O-])c1)c1cccs1`, the outcome was inactive. On the same count and under the same terms, the same measure for `Cc1ccccc1-n1c(SCc2cccc(F)c2)nc2[nH]ncc2c1=O`: “inactive”; for `Cn1cc(CN2C[C@]3(C)C[C@H]2CC(C)(C)C3)c(-c2ccc3c(c2)OCCO3)n1`: “inactive”; for `CC1C=CCC2C(=O)N(c3ccc(OC(=O)c4cccs4)cc3)C(=O)C12` (centres undefined): “inactive”.

As to `CCOc1ccccc1CNc1ccc(O)cc1`, the outcome was inactive.

The same test, now with this note: Bead-based flow cytometry, Bim peptide-Bcl-XL binding, MCF.
As for `CC1(C)Cc2c(ccc3ccccc23)/C(=C/C(=O)N2CCCCC2)N1`, the inhibition entry was “inactive”. Same read-out and setting: the same measure for `CCN(CC)c1ccc(NC(=O)c2ccccc2F)cc1S(=O)(=O)Nc1ccccc1OC`: “inactive”; for `O=c1[nH]c(SCc2nc3ccccc3c(=O)n2-c2ccccc2C(F)(F)F)nc2ccccc12`: “inactive”; for `CN(Cc1ccccc1)C(=O)c1[nH]cnc1C(=O)N[C@@H](CCCCNC(=O)OC(C)(C)C)C(=O)OC(C)(C)C`: “inactive”.

On to `COc1cc(N2CCOCC2)ccc1C=C1C(=O)NC(=O)NC1=O`, for which the inhibition result was “inactive”. Same read-out and setting: the same measure for `Cc1ccc(NC2=C(NC(=O)c3ccccc3)C(=O)c3ccccc3C2=O)cc1Cl`: “inactive”; for `CCOc1cc(S(=O)(=O)Nc2ccccn2)ccc1F`: “inactive”; for `CCNC(=S)Nc1ccc(OCC)cc1`: “inactive”. Still for that read-out and setting: the same measure for `COC(=O)Cc1cc(=O)[nH]c(Nc2nc3ccccc3o2)n1`: “inactive”. On the same count and under the same terms, the same measure for `COc1cc(C=Nc2cccc(C)c2)c(O)c([N+](=O)[O-])c1`: “inactive”; for `Cc1ccc(Nc2nc(CSc3nnc(-c4cccnc4)n3-c3ccccc3C)cs2)cc1`: “inactive”; for `COC(=O)c1c(C(=O)OC)c2cccc3cc(-c4ccccc4)c4ccc1c4n32`: “inactive”. On to `NCC(c1ccccc1)c1c[nH]c2ccccc12` (centres undefined), for which the inhibition result was “inactive”. In the case of `CC(C)=C1C(=O)NN(c2ccc(C)c(Cl)c2)C1=O`, the inhibition entry was “inactive”. As to `O=C(CSc1ccc(-c2ccccc2)nn1)NCc1ccco1`, the inhibition result was “inactive”. Consider `Cc1ccc(C)c(N2CCN(C(=S)Nc3ccc4nc(N5CCN(C)CC5)cc(C)c4c3)CC2)c1`, for which the inhibition entry is “inactive”.

For the compound `CCN(CC)S(=O)(=O)c1cccc(C(=O)N/N=C/c2ccc(O)c(O)c2O)c1`, the inhibition entry is “inactive”. The same measure, in the same setting: the same measure for `Cn1c(N)c(C(=O)COC(=O)c2cc(-c3ccco3)nc3ccccc23)c(=O)n(C)c1=O`: “inactive”; for `Cc1ccc(Nc2nc(-c3ccccc3)c(CC(=O)O)s2)cc1`: “inactive”; for `CC(C(=O)Nc1ccc([N+](=O)[O-])cc1)N1CCN(C/C=C/c2ccccc2)CC1` (centres undefined): “inactive”. Turning to `O=C(Nc1nccs1)c1ccc(COc2ccc(F)cc2)o1`, the inhibition entry is “inactive”. On to `CC[n+]1c(/C=C/C=C/N(C(C)=O)c2ccccc2)sc2ccccc21`, for which the inhibition result was “inactive”. The same measure, in the same setting: the same measure for `CCOC(=O)c1cc2c(=O)n3cccc(C)c3nc2n(Cc2ccco2)c1=NC(=O)c1ccccc1`: “inactive”; for `Cc1ccc(S(=O)(=O)N2CCCCC2)cc1NC(=O)COC(=O)c1ccccc1F`: “inactive”. Same read-out and setting: the same measure for `O=C(COC(=O)CCCN=C1NS(=O)(=O)c2ccccc21)NC(=O)NC1CCCC1`: “inactive”; for `Cc1occc1C(=O)NNC(=S)NCc1ccccc1`: “inactive”; for `Cc1ccc2c(C)c(C(=O)Nc3nnc(C)s3)oc2c1`: “inactive”. As for `CCOc1ccccc1C(=O)NC1CC2CCCC(C1)N2C1CC1` (centres undefined), the inhibition entry was “inactive”. Same read-out and setting: the same measure for `C/C(=N\NC(=O)Cn1nc(C)c([N+](=O)[O-])c1C)c1ccc(O)cc1`: “inactive”; for `COc1ccc2nc(NC(=O)c3ccc(-c4cccc([N+](=O)[O-])c4)o3)sc2c1`: “inactive”. On the same count and under the same terms, the same measure for `CCC(=O)N(CC)C1=C(O)c2ccccc2C(=O)C1=O`: “inactive”; for `Cc1nnc(Sc2cc(NCCCO)c([N+](=O)[O-])c3nonc23)s1`: “inactive”; for `CCC(CC)C(=O)Nc1cccc(SC)c1`: “inactive”. Still for that read-out and setting: the same measure for `Cc1cc(C)c2nc3nc(C)cc(C)c3c(N)c2c1`: “inactive”; for `CCCCN(C(=O)CCC(=O)Nc1cc(C)on1)C(C(=O)NC(C)(C)C)c1cccc(OC)c1OC` (centres undefined): “inactive”. In the case of `CCN(CC)c1ccc(NC(=O)c2ccccc2Br)cc1S(=O)(=O)Nc1ccccc1OC`, the inhibition entry was “inactive”. Still for that read-out and setting: the result for `CCOc1ccccc1NC(=O)CSc1nnc2ccc(-c3cccnc3)nn12` reads “inactive”. Same read-out and setting: the same measure for `O=C(Nc1ccc2nc(-c3ccco3)c(-c3ccco3)nc2c1)N1CCN(c2ccccn2)CC1`: “inactive”; for `Cc1ccc(C(=O)C(C(=O)/C=C/c2ccccc2)=C2SCCCS2)cc1`: “inactive”; for `O=C(Nc1ccccc1N1CCOCC1)c1cccs1`: “inactive”. The same measure, in the same setting: the same measure for `Cc1cccc(-n2c(O)c(/C=N/N3CCOCC3)c(=O)[nH]c2=S)c1`: “inactive”; for `Cc1cccc(Nc2nc(-c3ccncc3)cs2)c1`: “inactive”; for `Fc1ccc(Cn2nnnc2C(c2ccc(Cl)cc2)N2CCSCC2)cc1` (centres undefined): “inactive”. As for `CNCc1ccccc1Sc1ccc(O)c(O)c1`, the inhibition entry is “inactive”. On the same count and under the same terms, the result for `CCN(C(=O)COC(=O)c1cc(-c2ccc(C)o2)nc2ccccc12)C1CCS(=O)(=O)C1` (centres undefined) reads “inactive”; that for `COc1ccc(N2C(=O)C(Cl)=C(Nc3c(C)n(C)n(-c4ccccc4)c3=O)C2=O)cc1`, “inactive”; that for `Cc1ccc(-c2cc(C(=O)Nc3nccs3)c3ccccc3n2)o1`, “inactive”.

On to `COc1ccc(S(=O)(=O)NCCSc2ccccc2)cc1OC`, for which the inhibition entry was “inactive”. The same measure, in the same setting: the same measure for `C(=C\c1ccccc1)/CSc1nnc(-c2ccccn2)n1Cc1ccco1`: “inactive”; for `Cc1ccc(SCCC(=O)Nc2ccc(Br)c(C)c2)cc1`: “inactive”; for `CN(C)S(=O)(=O)N(CC(=O)Nc1ccccc1C(F)(F)F)c1ccccc1`: “inactive”. `Cc1ccnc(NS(=O)(=O)c2ccc(NS(=O)(=O)c3cccs3)cc2)n1`: the inhibition result was “inactive”. Same read-out and setting: the same measure for `CCOc1cccc(CNc2ccc(O)cc2)c1OCc1ccccc1Cl`: “inactive”; for `COCc1cc(CN2CCCC(CNC(=O)c3ccc(F)cc3)C2)ccc1OC` (centres undefined): “inactive”. The same measure, in the same setting: the result for `Cc1cccc(N=C2NC(=O)/C(=C/C=C/c3ccco3)S2)c1C` reads “inactive”; that for `COc1cc(NC(=S)NCCCO)c(OC)cc1Cl`, “inactive”; that for `Cc1noc(C)c1CN1C(=O)NC(Cc2ccccc2)(Cc2ccccc2)C1=O`, “inactive”. In the case of `CC(C)n1nnnc1SCC(=O)N1CCN(C(=O)c2ccco2)CC1`, the inhibition result is “inactive”. As for `Cc1ccc(-c2nc3c(c(=O)[nH]c(=O)n3Cc3ccccc3)n2Cc2ccccc2)o1`, the inhibition result is “inactive”.

For the compound `CN1C(=O)/C(=C/c2ccc(-c3ccccc3[N+](=O)[O-])o2)SC1=Nc1ccc(Cl)c(C(=O)O)c1`, the inhibition entry is “inactive”. With `O=C(Nc1nnc(C2CC2)s1)C1Cc2ccccc2CN1S(=O)(=O)c1ccccc1F` (centres undefined), the inhibition entry is “inactive”. Still for that read-out and setting: the result for `CCn1c(C)nc2cc(C(=O)N/N=C/c3ccc(O)c(O)c3O)ccc21` reads “inactive”.

In the case of `Cc1cc(-c2cc(-c3ccc(Cl)cc3)nc(N)c2C#N)co1`, the inhibition entry is “inactive”. In the case of `Cc1ccc2cc(C)c(Sc3nnnn3-c3ccccc3)nc2c1`, the inhibition result is “inactive”. On to `CCCn1c(C)cc(-c2csc(N)n2)c1C`, for which the inhibition result is “inactive”.

As to `CN(C)c1ccc(C=C2C(=O)NC(=O)NC2=O)cc1[N+](=O)[O-]`, the inhibition result is “inactive”.

Take `Cc1sc2nc(C(C)C)nc(SCC(=O)N3c4ccccc4CC3C)c2c1C` (centres undefined): the inhibition result is “inactive”.
